Laboratory results as given in PMC4359187 (Drugs in R&D, 2015).

Key:
[1] = test system: hERG channels heterologously expressed in HEK293 cells; settings: cited from earlier work
[2] = test system: HIV-positive patients; settings: saquinavir monotherapy, 84 patients; cited from earlier work
[3] = test system: treatment-naïve HIV-1-infected patients; test: Continuous Holter 12-lead ECG; format: in vivo, human; settings: modified saquinavir/ritonavir regimen

CC(C)(C)NC(=O)[C@@H]1C[C@@H]2CCCC[C@@H]2CN1C[C@@H](O)[C@H](Cc1ccccc1)NC(=O)[C@H](CC(N)=O)NC(=O)c1ccc2ccccc2n1 [Saquinavir, saquinavir]
Blockage of hERG channels ([1]; hERG heterologously expressed in HEK293 cells): dose-dependent blockage
Effect on hERG trafficking ([1]; in vitro): inhibitory effects
Clinical EC50 value, C min [2]: 0.05 µg/mL
Correlation between maximum ∆QTcFdense and C max of saquinavir [3]: No strong correlation
